What was measured:
Ross male broilers [1] = assay: Example 1: 42 d broiler trial, antibiotic in the feed present, absent or replaced; assay type: in vivo; conditions: PE1 4 kg per ton feed
Method: The effects of presence/absence/replacement of the antibiotics in the feed were examined. A group of 2000 Ross male broilers were randomly divided into four treatments and fed a mesh diet ad libitum. […] Body weight, feed intake and mortality were measured during the 42 d broiler trial. At the end of the trial, feed conversion was calculated and % cumulative mortality was recorded. Results indicated a 4.1% improved feed conversion in those birds which received an antibiotic growth promoter (Maxus™), compared to negative control (1.758 and 1.834 respectively). The addition of pomegranate extract powder improved feed conversion by 4.9% as compared to negative control treatment (1.744 and 1.834 respectively). Mortality results at end of trial were as follows: negative control 4.1%, antibiotic growth promoter 3.6% and pomegranate extract powder 1.4%.

Ross male broilers [2] = assay: Example 2: broiler trial testing the efficacy of a taste masking agent; assay type: in vivo; conditions: alternative probiotic growth additive, treatment 5
Source text: The objective of this trial was to test the efficacy of a taste masking agent. The trial examined the performance parameters in 2000 Ross male broilers randomly divided into 5 treatment groups. All broilers were fed mash feed ad libitum. Treatment 1, negative control, without addition of any growth promoter in feed, treatment 2, positive control with an antibiotic growth promoter avilamycin (Maxus™), treatment 3 received 2 kg additive PE1 of the invention per ton feed, treatment 4 received 2 kg additive PE1 of the invention per ton feed with a taste masking agent including thaumatin, and treatment 5 received an alternative probiotic growth additive (lactobacillus). Use of the masking agents improved broiler body weight results from 28-44 d period by 4.2% (1480 g vs 1420 g). Final body weight results at 44 d was improved by 3.6% in those broilers that received the masking agent as compared to those without. (2748 vs 2652). Feed conversion improved by 5.4% in those broilers receiving masking agent (1.84 instead of 1.94 kg/kg).

Molecule	cumulative mortality at end of trial (Ross male broilers [1]; 42 d trial, negative control 4.1%)	improved feed conversion compared to negative control (Ross male broilers [1]; end of 42 d trial, diet ad libitum)	feed conversion (Ross male broilers [1]; end of 42 d trial, negative control 1.834)	body weight throughout the trial versus both pomegranate extract groups (Ross male broilers [2])
COC[C@H]1O[C@@H](OC2OC[C@@H]3O[C@]4(O[C@H]3[C@H]2OC(=O)C(C)C)O[C@H](C)[C@@](O)(C(C)=O)[C@@H]2OCO[C@H]24)[C@@H](OC)[C@@H](O)[C@@H]1O[C@@H]1O[C@H](C)[C@H](OC)[C@H](O[C@H]2C[C@@]3(C)OC4(C[C@@H](O)[C@H](O[C@H]5C[C@@H](O)[C@H](OC(=O)c6c(C)c(Cl)c(O)c(Cl)c6OC)[C@@H](C)O5)[C@@H](C)O4)O[C@@H]3[C@@H](C)O2)[C@H]1O (stereo partly shown) [avilamycin]	3.6%	4.1%	1.758	
lactobacillus				consistently lower
